Consider five compounds from patent US20260116845A1, “LIPIDS AND COMPOSITIONS THEREOF” (Kernal Biologics, Inc., priority 2023, published 2026).

For one series, the system named is C57BL/6 mice. As to the kind of experiment: Multi-dose tolerability screening of NT-beta-Actin mRNA LNPs in MC38.K-inoculated C57BL/6 mice. Type of series: in vivo. Conditions: C57BL/6 mice with MC38.K, 1.0 mg/kg IV twice a week for two weeks. The protocol: NT-beta-Actin mRNA LNPs with different ionizable lipids were administered IV to C57BL/6 mice, inoculated with MC38.K cells, via the tail vein for a total of four doses (twice a week for two consecutive weeks) at a concentration of 1.0 mg/kg. Bodyweights were monitored and blood was collected pre-dose, 24 hours post first dose, 24 hours post fourth dose, and analyzed for cytokines, blood chemistry, and liver/spleen weights. Compounds 23, 99 and 101 were formulated using a peripheral process method. C57BL/6 mice were inoculated with MC38.K cells. Once tumors had grown, 1.0 mg/kg (Beta-Actin mRNA) of each LNP was intravenously administered twice a week for two weeks. […] N=6 per group for bodyweights, N=3 for blood analysis. Mean+/−SD.

A further series has as its system Spleen. Put plainly: Ex-vivo luminescence signal from spleen after IV Fluc mRNA LNPs in CD1 mice (IVIS). The note with it: tail vein 1.0 mg/kg Day 0 and Day 2, imaging 18 hours after second dose, Table 5.
For the next series, the system named is Liver. Put plainly: Ex-vivo luminescence signal from liver after IV Fluc mRNA LNPs in CD1 mice (IVIS). Conditions: tail vein 1.0 mg/kg Day 0 and Day 2, imaging 18 hours after second dose; for Total Liver Tissue Luciferin Signal (Photons/s) Ex-vivo - CD1: Table 4.
The test system of another series is AML12 Cell Line. Put plainly: Transfection of AML12 Cell Line with FLuc mRNA LNPs (ONE-Glo EX luciferase signal). Type of series: cell-based. Conditions: 200 ng Fluc mRNA-LNP, 24 hours. Put shortly:
(§1)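 LNPs (ionizable/structural/helper/PEG lipids, microfluidic mixing, mRNA quantified by RiboGreen) pre-incubated 30 min with mouse serum, then added at 200 ng mRNA per well in Opti-MEM to B16F10, MC38.K (5,000 cells/well) or AML12 (20,000 cells/well). Luminescence read after 24 h transfection.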

The subject of the next series is liver, tumor, and spleen. As to the kind of experiment: Biodistribution of Fluc mRNA LNPs in MC38.K-inoculated Albino B6 mice (ex vivo luminescence). The note with it: Albino B6 mice with MC38.K, 1.0 mg/kg IV, 18 hours. Here is the method: Fluc mRNA LNPs were administered to Albino B6 mice, inoculated with MC38.K cells, via the tail vein at 1.0 mg/kg. Eighteen hours later, bioluminescence was measured using an IVIS Spectrum imager. Mice were treated with 150 mg/kg luciferin substrate administered via intraperitoneal injection. Afterwards, mice were euthanized, and the lung, liver, spleen, and tumor were harvested for ex vivo imaging. All procedures were conducted according to the approved IACUC guidelines. N=5 per group. Data analysis was performed in Graphpad Prism 10. Values are reported as mean+/−standard deviation, unless specified otherwise. Ex-Vivo luminescence of liver, tumor, and spleen organs after 1.0 mg/kg IV injection of Peripheral LNPs. N=4 mice per group. (Mean±SD, n=4/group).

The next series relates to MC38.K Cell Line. As to the kind of experiment: Transfection of MC38.K Cell Line with FLuc mRNA LNPs (ONE-Glo EX luciferase signal). The series is classed as cell-based. Conditions: 200 ng Fluc mRNA-LNP, 24 hours; for Total Luciferin Signal (RLU) In Vitro - MC38.K: Table 4. The procedure, abridged: as §1
A further series relates to B16F10 Cell Line. Put plainly: Transfection of B16F10 Cell Line with FLuc mRNA LNPs (ONE-Glo EX luciferase signal). The series is classed as cell-based. The note with it: 200 ng Fluc mRNA-LNP, 24 hours. The procedure, abridged:
as §1

A short description of series [1]: Formulation of mRNA encapsulated lipid nanoparticles (microfluidic mixing, ribogreen assay). Type of series: physicochemical. The note with it: Table 4. The protocol: mRNA encapsulated lipid nanoparticles (mRNA LNPs) were formulated using microfluidic mixing with a PNI Ignite instrument. Briefly, lipids (ionizable: structural: helper: PEG) were dissolved in ethanol and mixed with and aqueous solution of mRNA. These mRNA-loaded dispersions were then neutralized via a buffer exchange with a pre-determined buffer overnight. Afterwards, formed LNPs were concentrated with Amicon filter centrifugation, filtered, concentration of mRNA determined through a ribogreen assay, and frozen at −80° C. until use.

The next series deals with MC38.K tumors. Put plainly: Intratumor delivery of Firefly Luciferase mRNA-LNPs in MC38.K tumor-bearing mice (IVIS). Type of series: in vivo. The note with it: Albino B6 mice, MC38.K tumors 250 mm^3, 1.0 mg/kg intratumoral, IVIS 18 hours post dose. The protocol:
Intratumor Delivery of Compound 23 versus Benchmark 1. Albino B6 mice were inoculated with MC38.K cancer cells. Once tumors reached 250 mm^3, 1.0 mg/kg of Firefly Luciferase mRNA-LNPs containing either Benchmark 1 or Compound 23 as the ionizable lipid component was dosed intratumorally. Takedown and IVIS imaging were performed 18 hours post dose. N=5 mice per group.

Another series concerns Balb/c mice. Put plainly: Multi-dose tolerability screening of NT-beta-Actin mRNA LNPs in naive Balb/c mice. Conditions: 1.0 mg/kg IV twice a week for four weeks. Type of series: in vivo. The protocol:
Multi-dose Tolerability Screening of Compound 23-LNPs: Compound 23 and Benchmark 1 were formulated using a standard process method and injected (1.0 mg/kg, IV) twice a week for four weeks into naïve Balb/c mice. NT-beta-Actin mRNA LNPs were administered IV to Balb/c mice via the tail vein for a total of eight doses (twice a week for four consecutive weeks) at a concentration of 1.0 mg/kg. Bodyweights were monitored and blood was collected pre-dose, 24 hours post first dose, 24 hours post-fourth dose, and 24 hours post-eighth dose and analyzed for cytokines, blood chemistry, and liver/spleen weights. Data analysis was performed in Graphpad Prism 10. Values are reported as mean+/−standard deviation, unless specified otherwise. […] N=6 per group.

Series [2] concerns Macaca fascicularis Cynomolgus monkeys. Put plainly: NHP study 2: weekly IV infusion of hEPO mRNA-LNP. The series is classed as in vivo. The note with it: weekly IV infusion 0.1 mg/kg hEPO mRNA-LNP. The protocol:
Male cynomolgus monkeys (Biomere, Richmond CA) were 4-6 years old and weighed 4-7 kg at the initiation of dosing. Monkeys were housed in stainless steel cages and provided with Monkey Diet 5038 daily except during times of fasting. Filtered tap water was provided to the animals ad libitum including during fasting times. Temperature of the animal room was kept between 64-84° F., humidity of 30-70%, and with a light/dark cycle of 12 hours except during designated procedures. Pre-dosing treatment with Famotidine (0.5 mg/kg), Diphenhydramine (5 mg/kg), and Dexamethasone (1 mg/kg) was performed prior to dosing of LNPs. Animals received weekly intravenous IV infusions of human erythropoietin encapsulated mRNA lipid nanoparticles (Compound 23, hEPO mRNA-LNP, 0.1 mg/kg). A total of four doses were administered. Prior and after dosing, body weights and temperature were monitored and blood samples were collected pre-dose, 2, 6, 24, 48, and 168 hours. All procedures were conducted according to the approved IACUC guidelines. The results are shown in FIG. 14, FIG. 15, FIG. 16, and FIG. 17.

Another series has as its system hepatocytes. Put plainly: Comparative study of fluoro v. non-fluoro compounds: Firefly Luciferase transfection efficiency. The series is classed as cell-based. Conditions: Firefly Luciferase expression in hepatocytes; pairs Compound 54 v. 58 and Compound 68 v. 67. The text has this: Transfection efficiency was compared between three pairs of compounds, Compound 54 v. Compound 58, Compound 68 v. Compound 67, and Compound 37 v. Compound 61. For each pair, the compounds only differ on one fluoro-substitution at the end of an alkyl chain. For example, the structures of Compound 54 and Compound 58 are shown below:
In vitro and in vivo comparison of Firefly Luciferase expression data of fluoro v. non-fluoro compounds were obtained according to procedure similar to those in Example 3 and Example 7. […] Compound 58 and Compound 68 v. Compound 67 in hepatocytes.

On to `CCCCCCCC/C=C\CCCCCCC1CN(CCOC(=O)CCN(C)C)CC(CCCCCC(=O)OC(CCCCCCCC)CCCCCCC(C)C)O1` (stereo not drawn) [Compound 99, 2-methylheptadecan-9-yl (Z)-6-(4-(2-((3-(dimethylamino)propanoyl)oxy)ethyl)-6-(hexadec-7-en-1-yl)morpholin-2-yl)hexanoate], for which the tolerability result in the series with C57BL/6 mice was “improved tolerability”. In the series on C57BL/6 mice (compared to Compound 23 LNPs), the adverse clinical observations entry was “less adverse clinical observations”; the “reduction in white blood cells and lymphocytes in the blood” value is “less of a reduction in white blood cells and lymphocytes”. Moreover, the “Total Spleen Tissue Luciferin Signal (Photons/s) In Vivo-Cd1” value in the series with Spleen is given as 2.78E+07 Photons/s. Moreover, the “Total Liver Tissue Luciferin Signal (Photons/s) In Vivo-Cd1” value in the series on Liver (Table 5) amounted to 1.81E+09 Photons/s. For the same compound, the “Total Luciferin Signal (RLU) In Vitro - AML12” value in the series on AML12 Cell Line (Table 5) came to 1.00E+05 RLU. In the series on liver, tumor, and spleen, the “expression in liver and spleen (ex-vivo luminescence)” value is “significantly less expression”; the “expression in solid tumor tissue (ex-vivo luminescence)” value was “nearly equivalent expression”. In the series with MC38.K Cell Line (Table 5), the “Total Luciferin Signal (RLU) In Vitro-MC38” value came out at 7.66E+04 RLU. Further, in the series with B16F10 Cell Line (Table 5), the “Total Luciferin Signal (RLU) In Vitro - B16F10” value was found to be 5.27E+05 RLU.
As to `CCCCCCCCCOC(=O)CCCCCCCN(CCF)CCCCCCCC(=O)OC(CCCCCCCC)CCCCCCCC` [Compound 43], the “mRNA encapsulation in LNP” value in [1] is on record as “Inherent Lipid Properties Result in No mRNA Encapsulation”.
On to `CCCCCCCCCOC(=O)CCCCCCCN(CCO)CCCCCCCC(=O)OC(CCCCCCCC)CCCCCCCCF` (stereo not drawn) [Compound 23], for which the intratumor delivery performance entry in the series on MC38.K tumors is “comparable delivery performance as that of Benchmark 1”. Moreover, the survival result in the series on C57BL/6 mice is reported as “all mice survived”. The “bodyweights or survival rate” value in the series with Balb/c mice (among Compound 23, Benchmark 1 and delivery buffer) is given as “Comparable bodyweights or survival rate”. The tolerability entry with Balb/c mice (versus delivery buffer) is recorded as “comparable tolerability”. Further, in the series on Liver, the “Total Liver Tissue Luciferin Signal (Photons/s) Ex-vivo - CD1” value is listed as 5.15E+09 Photons/s. For the same compound, in the series with AML12 Cell Line (Table 4), the “Total Luciferin Signal (RLU) In Vitro - AML12” value is 4.66E+05 RLU. Also, the “Total Luciferin Signal (RLU) In Vitro - MC38.K” value in the series with MC38.K Cell Line was 2.00E+06 RLU. The “tolerability (body weight, temperature, liver blood chemistry)” value in series [2] (4 doses) is listed as “reasonable tolerability”. In addition, in series [2] (four doses), the “generation of red blood cells (hematocrit, absolute reticulocyte counts)” value is “consistent generation of red blood cells over four repeated doses” and the “hEPO protein expression over repeated doses” value is on record as “consistent protein expression over repeated doses”. Besides, the “clearance of the lipid from blood / serum” value in series [2] (repeated doses) is given as “cleared from the blood without any observation of accumulation over repeated doses”. In the series on B16F10 Cell Line (Table 4), the “Total Luciferin Signal (RLU) In Vitro - B16F10” value is reported as 9.60E+05 RLU.
`CCCCCCCCC(CCCCCCCC)OC(=O)CCCCCCCN(CCCCO)CCCCCCC(C)C(=O)OCCCCCCCCC(C)C` (stereo not drawn) [Compound 68, 9-methyldecyl 8-((8-(heptadecan-9-yloxy)-8-oxooctyl)(4-hydroxybutyl)amino)-2-methyloctanoate]: in the series with hepatocytes, the “difference in transfection efficiency within fluoro v. non-fluoro pair” value was “Statistically significant difference in transfection efficiency”. In addition, the “Total Liver Tissue Luciferin Signal (Photons/s) Ex-vivo - CD1” value in the series with Liver is on record as 1.06E+10 Photons/s. The “Total Luciferin Signal (RLU) In Vitro - AML12” value in the series with AML12 Cell Line (Table 4) was 2.89E+06 RLU. The “Total Luciferin Signal (RLU) In Vitro - MC38.K” value with MC38.K Cell Line amounted to 1.60E+07 RLU. Besides, the “Total Luciferin Signal (RLU) In Vitro - B16F10” value in the series on B16F10 Cell Line (Table 4) is listed as 2.83E+06 RLU.
The matching figures for `CCCCCCCCC(CCCCCCCCF)OC(=O)CCCCCCCN(CCO)CCCCCCCC(=O)OCCCCCCCC=C(C)C` (stereo not drawn) [Compound 58, 1-fluoroheptadecan-9-yl 8-((2-hydroxyethyl)(8-((9-methyldec-8-en-1-yl)oxy)-8-oxooctyl)amino)octanoate]: “Statistically significant difference in transfection efficiency”, 9.65E+09 Photons/s, 2.18E+06 RLU, 4.80E+06 RLU and 4.03E+05 RLU.
